Numbers after ± are expanded uncertainties.
Assay: wn = mass fraction of the nth substance listed
Settings: 101 kPa, Liquid

CCC[n+]1ccn(C)c1.[Br-] [1-methyl-3-propylimidazolium bromide] + CC#N
Settings | mass density, 288.15 K [kg/m3] | mass density, 293.15 K [kg/m3] | mass density, 298.15 K [kg/m3] | mass density, 303.15 K [kg/m3] | mass density, 308.15 K [kg/m3] | speed of sound, 288.15 K [m/s] | speed of sound, 293.15 K [m/s] | speed of sound, 298.15 K [m/s] | speed of sound, 303.15 K [m/s] | speed of sound, 308.15 K [m/s]
w1 = 0.0042 | 788.991 ± 1.4 | 783.623 ± 1.4 | 778.237 ± 1.4 | 772.813 ± 1.4 | 767.37 ± 1.5 | 1320.2 ± 1.4 | 1300.1 ± 1.4 | 1280 ± 1.4 | 1259.7 ± 1.4 | 1239.6 ± 1.4
w1 = 0.0061 | 789.726 ± 1.4 | 784.364 ± 1.4 | 778.979 ± 1.4 | 773.562 ± 1.4 | 768.119 ± 1.5 | 1320.5 ± 1.4 | 1300.3 ± 1.4 | 1280.2 ± 1.4 | 1260 ± 1.4 | 1240.1 ± 1.4
w1 = 0.0082 | 790.532 ± 1.4 | 785.181 ± 1.4 | 779.798 ± 1.4 | 774.387 ± 1.4 | 768.949 ± 1.5 | 1321.1 ± 1.4 | 1301.1 ± 1.4 | 1281 ± 1.4 | 1260.9 ± 1.4 | 1240.8 ± 1.4
w1 = 0.0107 | 791.47 ± 1.4 | 786.115 ± 1.4 | 780.735 ± 1.4 | 775.331 ± 1.4 | 769.896 ± 1.5 | 1321.5 ± 1.4 | 1301.3 ± 1.4 | 1281.2 ± 1.4 | 1261.1 ± 1.4 | 1241.2 ± 1.4
w1 = 0.0124 | 792.123 ± 1.4 | 786.772 ± 1.4 | 781.397 ± 1.4 | 775.996 ± 1.4 | 770.564 ± 1.5 | 1322 ± 1.4 | 1302 ± 1.4 | 1281.9 ± 1.4 | 1261.8 ± 1.4 | 1241.7 ± 1.4
w1 = 0.0161 | 793.533 ± 1.3 | 788.186 ± 1.4 | 782.814 ± 1.4 | 777.417 ± 1.4 | 771.996 ± 1.4 | 1322.6 ± 1.4 | 1302.5 ± 1.4 | 1282.4 ± 1.4 | 1262.3 ± 1.4 | 1242.5 ± 1.4
w1 = 0.0206 | 795.242 ± 1.3 | 789.902 ± 1.4 | 784.538 ± 1.4 | 779.149 ± 1.4 | 773.734 ± 1.4 | 1323.5 ± 1.4 | 1303.4 ± 1.4 | 1283.4 ± 1.4 | 1263.4 ± 1.4 | 1243.5 ± 1.4
w1 = 0.0251 | 796.939 ± 1.3 | 791.606 ± 1.4 | 786.248 ± 1.4 | 780.864 ± 1.4 | 775.46 ± 1.4 | 1324.4 ± 1.4 | 1304.3 ± 1.4 | 1284.3 ± 1.4 | 1264.4 ± 1.4 | 1244.6 ± 1.4
w1 = 0.0298 | 798.688 ± 1.3 | 793.361 ± 1.4 | 788.011 ± 1.4 | 782.637 ± 1.4 | 777.238 ± 1.4 | 1325.3 ± 1.4 | 1305.3 ± 1.4 | 1285.3 ± 1.4 | 1265.4 ± 1.4 | 1245.6 ± 1.4
w1 = 0.0347 | 800.578 ± 1.3 | 795.262 ± 1.3 | 789.919 ± 1.4 | 784.553 ± 1.4 | 779.16 ± 1.4 | 1326.4 ± 1.4 | 1306.5 ± 1.4 | 1286.6 ± 1.4 | 1266.7 ± 1.4 | 1246.8 ± 1.4
w1 = 0.0407 | 802.812 ± 1.3 | 797.5 ± 1.3 | 792.166 ± 1.4 | 786.808 ± 1.4 | 781.426 ± 1.4 | 1327.3 ± 1.4 | 1307.4 ± 1.4 | 1287.5 ± 1.4 | 1267.6 ± 1.4 | 1248 ± 1.4
w1 = 0.0493 | 806.071 ± 1.3 | 800.772 ± 1.3 | 795.452 ± 1.3 | 790.107 ± 1.4 | 784.738 ± 1.4 | 1329.1 ± 1.4 | 1309.3 ± 1.4 | 1289.4 ± 1.4 | 1269.6 ± 1.4 | 1249.8 ± 1.4
w1 = 0.0605 | 810.335 ± 1.3 | 805.049 ± 1.3 | 799.743 ± 1.3 | 794.412 ± 1.4 | 789.059 ± 1.4 | 1331 ± 1.4 | 1311.1 ± 1.4 | 1291.3 ± 1.4 | 1271.6 ± 1.4 | 1252.1 ± 1.4
w1 = 1 | 1323.47 ± 3.3 | 1319.84 ± 3.3 | 1316.22 ± 3.3 | 1312.6 ± 3.2 | 1308.97 ± 3.2 | 1699.3 ± 2.6 | 1685 ± 2.6 | 1672 ± 2.6 | 1659.9 ± 2.6 | 1648.3 ± 2.6

CCC[n+]1ccn(C)c1.[Br-] [1-methyl-3-propylimidazolium bromide] + CN(C)C=O
Settings | mass density, 288.15 K [kg/m3] | mass density, 293.15 K [kg/m3] | mass density, 298.15 K [kg/m3] | mass density, 303.15 K [kg/m3] | mass density, 308.15 K [kg/m3] | speed of sound, 288.15 K [m/s] | speed of sound, 293.15 K [m/s] | speed of sound, 298.15 K [m/s] | speed of sound, 303.15 K [m/s] | speed of sound, 308.15 K [m/s]
w1 = 0.006 | 955.471 ± 0.59 | 950.721 ± 0.61 | 945.962 ± 0.64 | 941.197 ± 0.66 | 936.424 ± 0.68 | 1498.4 ± 1.5 | 1479.2 ± 1.5 | 1459.8 ± 1.5 | 1440.5 ± 1.5 | 1421.2 ± 1.5
w1 = 0.0073 | 955.896 ± 0.59 | 951.148 ± 0.61 | 946.392 ± 0.63 | 941.628 ± 0.66 | 936.859 ± 0.68 | 1498.7 ± 1.5 | 1479.5 ± 1.5 | 1460.1 ± 1.5 | 1440.8 ± 1.5 | 1421.5 ± 1.5
w1 = 0.0101 | 956.834 ± 0.58 | 952.089 ± 0.61 | 947.339 ± 0.63 | 942.58 ± 0.65 | 937.812 ± 0.67 | 1499.5 ± 1.5 | 1480.2 ± 1.5 | 1460.8 ± 1.5 | 1441.4 ± 1.5 | 1422.2 ± 1.5
w1 = 0.012 | 957.413 ± 0.58 | 952.669 ± 0.6 | 947.92 ± 0.63 | 943.162 ± 0.65 | 938.398 ± 0.67 | 1499.8 ± 1.5 | 1480.3 ± 1.5 | 1460.9 ± 1.5 | 1441.6 ± 1.5 | 1422.5 ± 1.5
w1 = 0.0162 | 958.776 ± 0.58 | 954.039 ± 0.6 | 949.295 ± 0.62 | 944.542 ± 0.64 | 939.782 ± 0.67 | 1500.8 ± 1.5 | 1481.6 ± 1.5 | 1462.2 ± 1.5 | 1442.9 ± 1.5 | 1423.7 ± 1.5
w1 = 0.0204 | 960.154 ± 0.57 | 955.416 ± 0.59 | 950.675 ± 0.61 | 945.932 ± 0.64 | 941.175 ± 0.66 | 1501.7 ± 1.5 | 1482.2 ± 1.5 | 1462.9 ± 1.5 | 1443.6 ± 1.5 | 1424.5 ± 1.5
w1 = 0.0249 | 961.605 ± 0.56 | 956.878 ± 0.59 | 952.144 ± 0.61 | 947.403 ± 0.63 | 942.652 ± 0.65 | 1502.7 ± 1.5 | 1483.5 ± 1.5 | 1464.2 ± 1.5 | 1445 ± 1.5 | 1425.8 ± 1.5
w1 = 0.0303 | 963.324 ± 0.56 | 958.602 ± 0.58 | 953.872 ± 0.6 | 949.136 ± 0.62 | 944.395 ± 0.65 | 1503.7 ± 1.6 | 1484.4 ± 1.5 | 1465.1 ± 1.5 | 1445.9 ± 1.5 | 1426.9 ± 1.5
w1 = 0.0348 | 964.79 ± 0.55 | 960.068 ± 0.57 | 955.349 ± 0.59 | 950.617 ± 0.62 | 945.882 ± 0.64 | 1504.8 ± 1.6 | 1485.4 ± 1.5 | 1466.2 ± 1.5 | 1447 ± 1.5 | 1428.1 ± 1.5
w1 = 0.0405 | 966.57 ± 0.54 | 961.858 ± 0.57 | 957.139 ± 0.59 | 952.415 ± 0.61 | 947.684 ± 0.63 | 1505.8 ± 1.6 | 1486.5 ± 1.5 | 1467.3 ± 1.5 | 1448.2 ± 1.5 | 1429.2 ± 1.5
w1 = 0.0503 | 969.758 ± 0.53 | 965.06 ± 0.55 | 960.356 ± 0.57 | 955.641 ± 0.6 | 950.923 ± 0.62 | 1507.8 ± 1.6 | 1488.8 ± 1.5 | 1469.7 ± 1.5 | 1450.5 ± 1.5 | 1431.6 ± 1.5
w1 = 0.0586 | 972.333 ± 0.52 | 967.639 ± 0.54 | 962.94 ± 0.56 | 958.234 ± 0.59 | 953.523 ± 0.61 | 1509.3 ± 1.6 | 1490.1 ± 1.5 | 1471 ± 1.5 | 1452 ± 1.5 | 1433.1 ± 1.5
w1 = 1 | 1323.47 ± 3.3 | 1319.84 ± 3.3 | 1316.22 ± 3.3 | 1312.6 ± 3.2 | 1308.97 ± 3.2 | 1699.3 ± 2.6 | 1685 ± 2.6 | 1672 ± 2.6 | 1659.9 ± 2.6 | 1648.3 ± 2.6

Reference: the NIST ThermoML archive (doi:10.1007/s10765-009-0648-5)
